Source: patent US20100216791A1, “PYRIDINYLQUINAZOLINAMINE DERIVATIVES AND THEIR USE AS B-RAF INHIBITORS” (ASTRAZENECA, priority 2006, published 2010)
Read-outs that look alike come from different tables or passages of the source.

Target: Mutant B-Raf (V600E) enzyme (MT B-Raf) (Homo sapiens, UniProt P15056, V600E)
Assay: biochemical
[1] = B-Raf Alpha screen comparable to the described assay, phosphorylation of biotinylated HIS-MEK-AVI, results may be an average of two or more results

Chain of Mutant B-Raf (V600E) enzyme (MT B-Raf) (P15056 whole entry V600E): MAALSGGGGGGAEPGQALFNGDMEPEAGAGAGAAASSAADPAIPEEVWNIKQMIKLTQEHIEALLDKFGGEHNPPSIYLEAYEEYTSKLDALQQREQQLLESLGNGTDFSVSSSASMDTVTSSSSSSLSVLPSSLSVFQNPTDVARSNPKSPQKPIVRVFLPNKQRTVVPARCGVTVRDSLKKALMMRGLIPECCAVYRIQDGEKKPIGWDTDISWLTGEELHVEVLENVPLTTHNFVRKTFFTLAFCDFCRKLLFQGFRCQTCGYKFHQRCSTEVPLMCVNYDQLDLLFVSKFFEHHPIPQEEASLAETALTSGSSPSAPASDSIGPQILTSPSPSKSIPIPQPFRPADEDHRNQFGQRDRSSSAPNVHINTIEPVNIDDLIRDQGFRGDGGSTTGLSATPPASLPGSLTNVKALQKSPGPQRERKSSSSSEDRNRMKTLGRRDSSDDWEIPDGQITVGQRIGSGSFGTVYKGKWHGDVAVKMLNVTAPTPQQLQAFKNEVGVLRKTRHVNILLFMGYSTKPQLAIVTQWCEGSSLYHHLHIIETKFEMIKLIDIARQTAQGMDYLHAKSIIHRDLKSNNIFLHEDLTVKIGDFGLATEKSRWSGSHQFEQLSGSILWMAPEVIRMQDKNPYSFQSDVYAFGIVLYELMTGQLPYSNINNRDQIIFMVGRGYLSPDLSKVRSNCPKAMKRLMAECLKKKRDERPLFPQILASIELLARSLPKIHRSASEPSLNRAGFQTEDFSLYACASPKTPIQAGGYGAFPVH

| SMILES | IC50 [1] [nM] | IC50 [nM] |
| --- | --- | --- |
| CC(c1ccc(Nc2ncc3cc(-c4ccncc4)ccc3n2)cc1)N(C)C (single isomer, unassigned) [Example 140] | 21 |  |
| CCCNC(C)c1ccc(Nc2ncc3cc(-c4ccncc4)ccc3n2)cc1 (single isomer, unassigned) [Example 142] | 12 |  |
| O=C(NCCN1CCOCC1)c1ccc(Nc2ncc3cc(-c4ccncc4)ccc3n2)cc1 [Example 5, N-(2-Morpholin-4-ylethyl)-4-[(6-pyridin-4-ylquinazolin-2-yl)amino]benzamide] | 180 |  |
| O=C(NCCOCCO)c1ccc(Nc2ncc3cc(-c4ccncc4)ccc3n2)cc1 [Example 8, N-[2-(2-Hydroxyethoxy)ethyl]-4-[(6-pyridin-4-ylquinazolin-2-yl)amino]benzamide] | 120 |  |
| COCCNC(=O)c1ccc(Nc2ncc3cc(-c4ccncc4)ccc3n2)cc1Cl [Example 10, 2-Chloro-N-(2-methoxyethyl)-4-[(6-pyridin-4-ylquinazolin-2-yl)amino]benzamide] | 350 |  |
| O=C(NCCCN1CCCC1=O)c1ccc(Nc2ncc3cc(-c4ccncc4)ccc3n2)cc1 [Example 21, N-[3-(2-Oxopyrrolidin-1-yl)propyl]-4-[(6-pyridin-4-ylquinazolin-2-yl)amino]benzamide] | 200 |  |
| CC(C)(C)OC(=O)N1CCC(CNC(=O)c2ccc(Nc3ncc4cc(-c5ccncc5)ccc4n3)cc2)CC1 [Example 24, tert-Butyl 4-[({4-[(6-pyridin-4-ylquinazolin-2-yl)amino]benzoyl}amino)methyl]piperidine-1-carboxylate] | 520 |  |
| CC(C)(C)OC(=O)NCCCNC(=O)c1ccc(Nc2ncc3cc(-c4ccncc4)ccc3n2)cc1 [Example 26, tert-Butyl [3-({4-[(6-pyridin-4-ylquinazolin-2-yl)amino]benzoyl}amino)propyl]carbamate] | 550 |  |
| CN(C)C(=O)c1ccc(Nc2ncc3cc(-c4ccncc4)ccc3n2)cc1 [Example 30, N,N-Dimethyl-4-[(6-pyridin-4-ylquinazolin-2-yl)amino]benzamide] | 83 |  |
| COCC(C)NC(=O)c1ccc(Nc2ncc3cc(-c4ccncc4)ccc3n2)cc1 (stereo not drawn) [Example 32, N-(2-Methoxy-1-methylethyl)-4-[(6-pyridin-4-ylquinazolin-2-yl)amino]benzamide] | 130 |  |
| O=C(NCCCn1ccnc1)c1ccc(Nc2ncc3cc(-c4ccncc4)ccc3n2)cc1 [Example 35, N-[3-(1H-Imidazol-1-yl)propyl]-4-[(6-pyridin-4-ylquinazolin-2-yl)amino]benzamide] | 110 |  |
| Cc1cc(Nc2ncc3cc(-c4ccncc4)ccc3n2)ccc1C(=O)NCCN(C)C [Example 36, N-[2-(Dimethylamino)ethyl]-2-methyl-4-[(6-pyridin-4-ylquinazolin-2-yl)amino]benzamide] | 95 |  |
| CN(C)CCOc1ccc(Nc2ncc3cc(-c4ccncc4)ccc3n2)cc1 [Example 40, N-{4-[2-(Dimethylamino)ethoxy]phenyl}-6-pyridin-4-ylquinazolin-2-amine] | 160 |  |
| COc1ccc(Nc2ncc3cc(-c4ccncc4)ccc3n2)cc1 [Example 41, N-(4-Methoxyphenyl)-6-pyridin-4-ylquinazolin-2-amine] | 460 |  |
| c1cc(-c2ccc3nc(Nc4ccc(OCCN5CCOCC5)cc4)ncc3c2)ccn1 [Example 43, N-[4-(2-Morpholin-4-ylethoxy)phenyl]-6-pyridin-4-ylquinazolin-2-amine] | 160 |  |
| c1cc(-c2ccc3nc(Nc4ccc5c(c4)OCCO5)ncc3c2)ccn1 [Example 45, N-(2,3-Dihydro-1,4-benzodioxin-6-yl)-6-pyridin-4-ylquinazolin-2-amine] | 300 |  |
| Cc1cc(Nc2ncc3cc(-c4ccncc4)ccc3n2)ccc1C(=O)N(C)C [Example 50] |  | 150 |
| Cc1cc(Nc2ncc3cc(-c4ccncc4)ccc3n2)ccc1C(=O)NCCN1CCCCC1 [Example 51, 2-Methyl-N-(2-(piperidin-1-yl)ethyl)-4-(6-(pyridin-4-yl)quinazolin-2-ylamino)benzamide] | 130 |  |
| OCCc1ccc(Nc2ncc3cc(-c4ccncc4)ccc3n2)cc1 [Example 52, 2-{4-[(6-Pyridin-4-ylquinazolin-2-yl)amino]phenyl}ethanol] | 120 |  |
| O=C1CCCN1c1ccc(Nc2ncc3cc(-c4ccncc4)ccc3n2)cc1 [Example 54, 1-{4-[(6-Pyridin-4-ylquinazolin-2-yl)amino]phenyl}pyrrolidin-2-one] | 120 |  |

The remaining compounds from weak to strong by IC50 [1], led by results:

| IC50 [1] [nM] | SMILES | IC50 [nM] |
| --- | --- | --- |
| 1700 | COCCNC(=O)c1ccnc(Nc2ncc3cc(-c4ccncc4)ccc3n2)c1 [Example 37, N-(2-Methoxyethyl)-2-[(6-pyridin-4-ylquinazolin-2-yl)amino]isonicotinamide] |  |
| 1500 | COCCNC(=O)c1cccc(Nc2ncc3cc(-c4ccncc4)ccc3n2)n1 [Example 38, N-(2-Methoxyethyl)-6-[(6-pyridin-4-ylquinazolin-2-yl)amino]pyridine-2-carboxamide] |  |
| 1300 | COCCNC(=O)c1ccc(Nc2ncc3cc(-c4ccncc4)ccc3n2)nc1 [Example 18, N-(2-Methoxyethyl)-6-[(6-pyridin-4-ylquinazolin-2-yl)amino]nicotinamide] |  |
| 730 | CC(C)(C#N)c1ccc(Nc2ncc3cc(-c4ccncc4)ccc3n2)cc1 [Example 2, 2-Methyl-2-{4-[(6-pyridin-4-ylquinazolin-2-yl)amino]phenyl}propanenitrile] |  |
| 490 | CC(C)(C)OC(=O)N1CCCC1CNC(=O)c1ccc(Nc2ncc3cc(-c4ccncc4)ccc3n2)cc1 (stereo not drawn) [Example 19, tert-Butyl 2-[({4-[(6-pyridin-4-ylquinazolin-2-yl)amino]benzoyl}amino)methyl]pyrrolidine-1-carboxylate] |  |
| 420 | c1cc(-c2ccc3nc(Nc4ccc5c(c4)OCO5)ncc3c2)ccn1 [Example 44, N-1,3-Benzodioxol-5-yl-6-pyridin-4-ylquinazolin-2-amine] |  |
| 390 | CC(C)(C)OC(=O)NCCNC(=O)c1ccc(Nc2ncc3cc(-c4ccncc4)ccc3n2)cc1 [Example 25, tert-Butyl [2-({4-[(6-pyridin-4-ylquinazolin-2-yl)amino]benzoyl}amino)ethyl]carbamate] |  |
| 310 | CN(CCCNC(=O)c1ccc(Nc2ncc3cc(-c4ccncc4)ccc3n2)cc1)C(=O)OC(C)(C)C [Example 13, tert-Butyl methyl[3-({4-[(6-pyridin-4-ylquinazolin-2-yl)amino]benzoyl}amino)propyl]carbamate] |  |
| 270 | CC(O)CCNC(=O)c1ccc(Nc2ncc3cc(-c4ccncc4)ccc3n2)cc1 (stereo not drawn) [Example 34, N-(3-Hydroxybutyl)-4-[(6-pyridin-4-ylquinazolin-2-yl)amino]benzamide] |  |
| 270 | COCCNC(=O)c1ccc(Nc2ncc3cc(-c4ccncc4F)ccc3n2)cc1 [Example 48, 4-{[6-(3-Fluoropyridin-4-yl)quinazolin-2-yl]amino}-N-(2-methoxyethyl)benzamide] |  |
| 250 | O=C(NCCc1ccccn1)c1ccc(Nc2ncc3cc(-c4ccncc4)ccc3n2)cc1 [Example 20, N-(2-Pyridin-2-ylethyl)-4-[(6-pyridin-4-ylquinazolin-2-yl)amino]benzamide] |  |
| 230 | COC(=O)c1ccc(Nc2ncc3cc(-c4ccncc4)ccc3n2)cc1 [Example 9, Methyl 4-[(6-pyridin-4-ylquinazolin-2-yl)amino]benzoate] |  |
| 230 | c1cc(-c2ccc3nc(Nc4ccc(OCCN5CCCCC5)cc4)ncc3c2)ccn1 [Example 42, N-[4-(2-Piperidin-1-ylethoxy)phenyl]-6-pyridin-4-ylquinazolin-2-amine] |  |
| 210 | O=C(NCC1CCCO1)c1ccc(Nc2ncc3cc(-c4ccncc4)ccc3n2)cc1 (stereo not drawn) [Example 14, 4-[(6-Pyridin-4-ylquinazolin-2-yl)amino]-N-(tetrahydrofuran-2-ylmethyl)benzamide] |  |
| 210 | CC(=O)c1ccc(Nc2ncc3cc(-c4ccncc4)ccc3n2)cc1 [Example 53, 1-{4-[(6-Pyridin-4-ylquinazolin-2-yl)amino]phenyl}ethanone] |  |
| 200 | CC1(C)OCC(CNC(=O)c2ccc(Nc3ncc4cc(-c5ccncc5)ccc4n3)cc2)O1 (stereo not drawn) [Example 16, N-[(2,2-Dimethyl-1,3-dioxolan-4-yl)methyl]-4-[(6-pyridin-4-ylquinazolin-2-yl)amino]benzamide] |  |
| 160 | Cc1cc(Nc2ncc3cc(-c4ccncc4)ccc3n2)ccc1C(=O)NCCN1CCOCC1 [Example 33, 2-Methyl-N-(2-morpholin-4-ylethyl)-4-[(6-pyridin-4-ylquinazolin-2-yl)amino]benzamide] |  |
| 140 | O=C(NCCO)c1ccc(Nc2ncc3cc(-c4ccncc4)ccc3n2)cc1 [Example 7, N-(2-Hydroxyethyl)-4-[(6-pyridin-4-ylquinazolin-2-yl)amino]benzamide] |  |
| 140 | CC(C)NCCNC(=O)c1ccc(Nc2ncc3cc(-c4ccncc4)ccc3n2)cc1 [Example 28, N-[2-(Isopropylamino)ethyl]-4-[(6-pyridin-4-ylquinazolin-2-yl)amino]benzamide] |  |
| 91 | O=C(NCCCN1CCOCC1)c1ccc(Nc2ncc3cc(-c4ccncc4)ccc3n2)cc1 [Example 22, N-(3-Morpholin-4-ylpropyl)-4-[(6-pyridin-4-ylquinazolin-2-yl)amino]benzamide] |  |
| 87 | O=C(NCCN1CCCCC1)c1ccc(Nc2ncc3cc(-c4ccncc4)ccc3n2)cc1 [Example 27, N-(2-Piperidin-1-ylethyl)-4-[(6-pyridin-4-ylquinazolin-2-yl)amino]benzamide] |  |
| 82 | CN(C)CCCNC(=O)c1ccc(Nc2ncc3cc(-c4ccncc4)ccc3n2)cc1 [Example 31, N-[3-(Dimethylamino)propyl]-4-[(6-pyridin-4-ylquinazolin-2-yl)amino]benzamide] |  |
| 79 | CNC(=O)c1ccc(Nc2ncc3cc(-c4ccncc4)ccc3n2)cc1 [Example 17, N-Methyl-4-[(6-pyridin-4-ylquinazolin-2-yl)amino]benzamide] |  |
| 36 | CC(c1ccc(Nc2ncc3cc(-c4ccncc4)ccc3n2)cc1)N(C)C (single isomer, unassigned) [Example 139] |  |
| 34 | CCCNC(C)c1ccc(Nc2ncc3cc(-c4ccncc4)ccc3n2)cc1 (single isomer, unassigned) [Example 141] |  |
